Among the data in US20260226068A1, “IMIDAZOTRIAZINE IL-17A MODULATORS AND USES THEREOF” (DICE ALPHA, INC., priority 2023, published 2026) are IC50 values, retold here.

For one test, the target named is T1, IL-17A/A (Homo sapiens, UniProt Q16552).
T1 construct: purchased Genscript Z03228
T1 sequence (Q16552 24-155): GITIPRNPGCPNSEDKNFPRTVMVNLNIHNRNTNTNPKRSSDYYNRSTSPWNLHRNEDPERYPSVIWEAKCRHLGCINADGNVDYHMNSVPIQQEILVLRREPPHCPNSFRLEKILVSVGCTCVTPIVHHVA
Nature of the test: IL-17A/A HEK-Blue cell assay (SEAP reporter). Format: cell-based. The settings on record: HEK-Blue IL-17A reporter cells, IL17A/A 5 ng/mL, 20 hours, SEAP read at A630; read-out: HEK-Blue IL17AA (IC50 for IL-17A/A inhibition).

In a further test the target is T2, IL-17A/F (Homo sapiens, UniProt Q16552+Q96PD4).
T2 construct: purchased R&D Systems
T2 sequence (Q16552 24-155): T1 sequence (Q16552 24-155)
T2 sequence (Q96PD4 31-163): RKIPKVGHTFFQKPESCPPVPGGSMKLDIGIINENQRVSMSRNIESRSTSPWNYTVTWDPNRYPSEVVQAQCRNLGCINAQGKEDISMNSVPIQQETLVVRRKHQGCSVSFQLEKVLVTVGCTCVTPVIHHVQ
Nature of the test: IL-17A/F HEK-Blue cell assay (SEAP reporter). Format: cell-based. The settings on record: HEK-Blue IL-17A reporter cells, IL17A/F 5 ng/mL, 20 hours, SEAP read at A630; read-out: HEK-Blue IL17AF (IC50 for IL-17A/F inhibition).

Turning to `CCn1nccc1C(=O)N[C@H](c1cn2nc(C[C@H]3C[C@@H](C(F)(F)F)CNC3=O)c([C@H](C)N3CCOCC3)nc2n1)C1CCC(F)(F)CC1` (single isomer, unassigned) [Compound 381], the IC50 was 100 to 1000 nM at IL-17A/A and > 1000 nM at IL-17A/F.
In the case of `CCn1nccc1C(=O)N[C@H](c1cn2nc(C[C@H]3C[C@@H](C(F)(F)F)CNC3=O)c([C@H]3CN(C)CCO3)nc2n1)C1CCC(F)(F)CC1` (single isomer, unassigned) [Compound 382], the values for the IC50 on IL-17A/A and at IL-17A/F were < 100 nM and > 1000 nM, respectively.
For `CCn1nccc1C(=O)N[C@H](c1cn2nc(C[C@H]3C[C@@H](C(F)(F)F)CNC3=O)c(C3Cc4cncnc4C3)nc2n1)C1CCC(F)(F)CC1` (single isomer, unassigned) [Compound 400], the IC50 on IL-17A/A is < 100 nM; on IL-17A/F it was 100 to 1000 nM.
In the case of `CCn1nccc1C(=O)N[C@H](c1cn2nc(C[C@H]3C[C@@H](C(F)(F)F)CNC3=O)c([C@@H]3CCCN(C)C3)nc2n1)C1CCC(F)(F)CC1` (single isomer, unassigned) [Compound 401], the IC50 on IL-17A/A was 100 to 1000 nM; at IL-17A/F it was > 1000 nM.
In the case of `CCn1nccc1C(=O)N[C@H](c1cn2nc(C[C@H]3C[C@@H](C(F)(F)F)CNC3=O)c(C3Cc4cncnc4C3)nc2n1)C1CCC(F)(F)CC1` (single isomer, unassigned) [Compound 402], the IC50 is < 100 nM on IL-17A/A and 100 to 1000 nM at IL-17A/F.
With `CCn1nccc1C(=O)N[C@H](c1cn2nc(C[C@H]3C[C@@H](C(F)(F)F)CNC3=O)c(C3CCCN(C)C3)nc2n1)C1CCC(F)(F)CC1` (single isomer, unassigned) [Compound 403], the IC50 is < 100 nM on IL-17A/A and > 1000 nM at IL-17A/F.
As for `CCn1nccc1C(=O)N[C@H](c1cn2nc(C[C@H]3C[C@@H](C(F)(F)F)CNC3=O)c(C3COCCN3C)nc2n1)C1CCC(F)(F)CC1` (single isomer, unassigned) [Compound 404], the IC50 is 100 to 1000 nM at IL-17A/A and > 1000 nM at IL-17A/F.
Consider `CCn1nccc1C(=O)N[C@H](c1cn2nc(C[C@H]3C[C@@H](C(F)(F)F)CNC3=O)c(N3CCN(C)[C@H](C4CC4)C3)nc2n1)C1CCC(F)(F)CC1` (single isomer, unassigned) [Compound 431], for which the figures for the IC50 at IL-17A/A and on IL-17A/F were < 100 nM and 100 to 1000 nM, respectively.
Take `CCn1nccc1C(=O)N[C@H](c1cn2nc(C[C@H]3C[C@@H](C(F)(F)F)CNC3=O)c(N3CCN(C)C(C4CC4)C3)nc2n1)C1CCC(F)(F)CC1` (single isomer, unassigned) [Compound 432]: the IC50 on IL-17A/A is < 100 nM; at IL-17A/F, 100 to 1000 nM.
Consider `CCn1nccc1C(=O)N[C@H](c1cn2nc(C[C@H]3C[C@@H](C(F)(F)F)CNC3=O)c(C3CCN(C)C3)nc2n1)C1CCC(F)(F)CC1` (single isomer, unassigned) [Compound 439], for which the IC50 on IL-17A/A is 100 to 1000 nM; on IL-17A/F, > 1000 nM.
As for `CCn1nccc1C(=O)N[C@H](c1cn2nc(CC3C[C@@H](C(F)(F)F)CNC3=O)c(C3CCOCC3)nc2n1)C1CCC(F)(F)CC1` (stereo in doubt) [Compound 89, N-((1S)-(4,4-difluorocyclohexyl)(2-(((3R,5R)-2-oxo-5-(trifluoromethyl)piperidin-3-yl)methyl)-3-(tetrahydro-2H-pyran-4-yl)imidazo[1,2-b][1,2,4]triazin-6-yl)methyl)-1-ethyl-1H-pyrazole-5-carboxamide], the IC50 on IL-17A/A was < 100 nM; at IL-17A/F, > 1000 nM.
As to `CCn1ncnc1C(=O)N[C@H](c1cn2nc(C[C@H]3C[C@@H](C(F)(F)F)CNC3=O)c(C3CCOCC3)nc2n1)C1CCCC(F)(F)C1` (stereo in doubt) [Compound 384, N—((S)—((S)-3,3-difluorocyclohexyl)(2-(((3R,5R)-2-oxo-5-(trifluoromethyl)piperidin-3-yl)methyl)-3-(tetrahydro-2H-pyran-4-yl)imidazo[1,2-b][1,2,4]triazin-6-yl)methyl)-1-ethyl-1H-1,2,4-triazole-5-carboxamide], the IC50 at IL-17A/A was < 100 nM; on IL-17A/F it was > 1000 nM.
With `Cn1nccc1C(=O)N[C@H](c1cn2nc(CC3C[C@@H](C(F)(F)F)CNC3=O)cnc2n1)C1CCC(F)(F)CC1` (stereo partly drawn) [Compound 3, N—((S)-(4,4-difluorocyclohexyl)(2-(((5R)-2-oxo-5-(trifluoromethyl)piperidin-3-yl)methyl)imidazo[1,2-b][1,2,4]triazin-6-yl)methyl)-1-methyl-1H-pyrazole-5-carboxamide], the IC50 is 100 to 1000 nM on IL-17A/A and > 1000 nM at IL-17A/F.
As for `CC(C)n1nccc1C(=O)N[C@H](c1cn2nc(CC3C[C@@H](C(F)(F)F)CNC3=O)cnc2n1)C1CCC(F)(F)CC1` (stereo partly drawn) [Compound 6, N—((S)-(4,4-difluorocyclohexyl)(2-(((5R)-2-oxo-5-(trifluoromethyl)piperidin-3-yl)methyl)imidazo[1,2-b][1,2,4]triazin-6-yl)methyl)-1-isopropyl-1H-pyrazole-5-carboxamide], the IC50 is < 100 nM on IL-17A/A and > 1000 nM at IL-17A/F.
As to `O=C(N[C@H](c1cn2nc(CC3C[C@@H](C(F)(F)F)CNC3=O)cnc2n1)C1CCC(F)(F)CC1)c1conc1CCF` (stereo partly drawn) [Compound 7, N—((S)-(4,4-difluorocyclohexyl)(2-(((5R)-2-oxo-5-(trifluoromethyl)piperidin-3-yl)methyl)imidazo[1,2-b][1,2,4]triazin-6-yl)methyl)-3-(2-fluoroethyl)isoxazole-4-carboxamide], the IC50 at IL-17A/A is 100 to 1000 nM; at IL-17A/F it was > 1000 nM.
With `CC(C)c1nocc1C(=O)N[C@H](c1cn2nc(CC3C[C@@H](C(F)(F)F)CNC3=O)cnc2n1)C1CCC(F)(F)CC1` (stereo partly drawn) [Compound 8, N—((S)-(4,4-difluorocyclohexyl)(2-(((5R)-2-oxo-5-(trifluoromethyl)piperidin-3-yl)methyl)imidazo[1,2-b][1,2,4]triazin-6-yl)methyl)-3-isopropylisoxazole-4-carboxamide], the IC50 was 100 to 1000 nM on IL-17A/A and > 1000 nM at IL-17A/F.
`O=C(N[C@H](c1cn2nc(CC3C[C@@H](C(F)(F)F)CNC3=O)cnc2n1)C1CCC(F)(F)CC1)c1conc1C1CC1` (stereo partly drawn) [Compound 9, 3-cyclopropyl-N—((S)-(4,4-difluorocyclohexyl)(2-(((5R)-2-oxo-5-(trifluoromethyl)piperidin-3-yl)methyl)imidazo[1,2-b][1,2,4]triazin-6-yl)methyl)isoxazole-4-carboxamide]: the results for the IC50 on IL-17A/A and at IL-17A/F were < 100 nM and > 1000 nM, respectively.
In the case of `O=C(N[C@H](c1cn2nc(CC3C[C@@H](C(F)(F)F)CNC3=O)cnc2n1)C1CCC(F)(F)CC1)c1conc1C(F)(F)F` (stereo partly drawn) [Compound 10, N—((S)-(4,4-difluorocyclohexyl)(2-(((5R)-2-oxo-5-(trifluoromethyl)piperidin-3-yl)methyl)imidazo[1,2-b][1,2,4]triazin-6-yl)methyl)-3-(trifluoromethyl)isoxazole-4-carboxamide], the IC50 is 100 to 1000 nM on IL-17A/A and > 1000 nM on IL-17A/F.
Taken in the same sequence, the figures for `CCc1nonc1C(=O)N[C@H](c1cn2nc(CC3C[C@@H](C(F)(F)F)CNC3=O)cnc2n1)C1CCC(F)(F)CC1` (stereo partly drawn) [Compound 11, N—((S)-(4,4-difluorocyclohexyl)(2-(((5R)-2-oxo-5-(trifluoromethyl)piperidin-3-yl)methyl)imidazo[1,2-b][1,2,4]triazin-6-yl)methyl)-4-ethyl-1,2,5-oxadiazole-3-carboxamide] were 100 to 1000 nM and > 1000 nM.
